According to patent US4053615A, “Phthalimidopiperidines and anti-convulsant compositions thereof” (John Wyeth & Brother Limited, priority 1972, dated 1977):

Key:
[1] = system: clonic and tonic convulsions induced by pentylenetetrazole; assay: Procedure A: anti-pentylenetetrazole activity; type: in vivo; set-up: key to Activity class, Procedure A: INACTIVE: A compound is regarded as inactive in either one of the two procedures if the ED50 of the compound in the test procedure is greater than 400 mg/kg; conditions: mice, p.o.; for ED50: Mus musculus, po, 1 h, challenge one hour later with pentylenetetrazole 125 mg/kg i.p., read-out: ED50 (against convulsions), Procedure A
Experimental: ANTI-PENTYLENETETRAZOLE ACTIVITY
Compounds at a number of dose levels are administered p.o. to groups of six mice (3 males and 3 females). One hour later the animals are challenged with pentylenetetrazole (125mg/kg i.p.). The incidence of clonic and tonic convulsions and deaths is observed for one-half hour. Protection against convulsions and death is determined by comparison with controls run simultaneously. An ED50 against convulsions is calculated from probit-log dose curves.

[2] = system: tonic extensor seizures (maximal electroshock); assay: Procedure B: maximal electroshock seizures (MES); type: in vivo; set-up: key to Activity class, Procedure B: INACTIVE: A compound is regarded as inactive in either one of the two procedures if the ED50 of the compound in the test procedure is greater than 400 mg/kg; conditions: mice, orally; for ED50: Mus musculus, po, 1 h, supramaximal electroshock one hour later (25 mA, 0.2 sec), read-out: ED50 (against convulsions), Procedure B
Experimental: MAXIMAL ELECTROSHOCK SEIZURES (MES)
Compounds at graded dose levels are administered orally to groups of six mice. One hour later, the animals are given a supramaximal electroshock through pinna electrodes (25 mA, 0.2 sec). Presence or absence of tonic extensor seizures as well as the number of deaths are recorded.
The percent protection against seizures is calculated. An ED50 against convulsions is calculated from probit-log dose curves.

[3] = Anti-inflammatory activity; type: in vivo; conditions: when tested on warm blooded animals
[4] = system: blood platelet aggregation; assay: Inhibition of blood platelet aggregation
Anti-arrhythmic activity = type: in vivo; conditions: when tested on warm blooded animals

| Structure (SMILES) | ED50 [1] [mg/kg] | other results |
| --- | --- | --- |
| CCN1CCC(N2C(=O)c3ccccc3C2=O)C1 (stereo not shown) [1-ethyl-3-phthalimido-pyrrolidine, 1-ethyl-3-phthalimidopyrrolidine, reference compound] | > 400 | Activity class, Procedure A ([1]; pentylenetetrazole challenge): INACTIVE; ED50 [2]: > 400 mg/kg; Activity class, Procedure B ([2]; maximal electroshock): INACTIVE |
| O=C1c2ccccc2C(=O)N1C1CCN(Cc2ccccc2)CC1 [Example 1, 1-Benzyl-4-phthalimido-piperidine] | – | anti-inflammatory activity [3]: Anti-inflammatory activity is shown |
| O=C1c2ccccc2C(=O)N1C1CCNCC1 [Example 2, 4-Phthalimido-piperidine] | – | inhibition of blood platelet aggregation [4]: active as an inhibitor of blood platelet aggregation |
| CCN1CCCC(N2C(=O)c3ccccc3C2=O)C1 (stereo not shown) [Example 3, 1-Ethyl-3-phthalimido-piperidine] | 51 to 100 | ED50 [2]: 31 to 50 mg/kg; anti-arrhythmic activity (Anti-arrhythmic activity): anti-arrhythmic activity is shown |
| CCN1CCCC(N2C(=O)c3ccc([N+](=O)[O-])cc3C2=O)C1 (stereo not shown) [Example 4, 1-Ethyl-3-(4-nitrophthalimido)piperidine] | 6 to 15 | anti-arrhythmic activity (Anti-arrhythmic activity): anti-arrhythmic activity is shown |
| CCN1CCCC(N2C(=O)c3ccc(N)cc3C2=O)C1 (stereo not shown) [Example 6, 3-(4-Aminophthalimido)-1-ethylpiperidine] | 6 to 15 | – |
| CCCCN1CCC(N2C(=O)c3ccc([N+](=O)[O-])cc3C2=O)CC1 [Example 12, 1-n-Butyl-4-(4-nitrophthalimido)piperidine] | 6 to 15 | – |
| CCCCN1CCC(N2C(=O)c3ccc(N)cc3C2=O)CC1 [Example 13, 4-(4-Aminophthalimido)-1-n-butylpiperidine] | 6 to 15 | – |
| O=C1c2ccc([N+](=O)[O-])cc2C(=O)N1C1CCN(Cc2ccccc2)CC1 [Example 15, 1-Benzyl-4-(4-nitrophthalimido)piperidine] | 6 to 15 | – |
| Nc1ccc2c(c1)C(=O)N(C1CCN(Cc3ccccc3)CC1)C2=O [Example 16, 4-(4-Aminophthalimido)-1-benzylpiperidine] | 6 to 15 | – |
